Results from ChEMBL document CHEMBL4359822, “Design, synthesis of 4,5-diazafluorene derivatives and their anticancer activity via targeting telomeric DNA G-quadruplex” (Eur J Med Chem, 2019).
Calls of active or inactive are those of the source. The calls are words filed in the database; no cut-off is given here.

What was measured:
[1] = test system: AGS; assay: Antiproliferative activity against human AGS cells at 10 uM incubated for 36 hrs by CCK8 assay; format: functional, cell-based
[2] = test system: A549; assay: Antiproliferative activity against human A549 cells at 10 uM incubated for 36 hrs by CCK8 assay; format: functional, cell-based
[3] = test system: MCF7; assay: Antiproliferative activity against human MCF7 cells at 10 uM incubated for 36 hrs by CCK8 assay; format: functional, cell-based
[4] = test system: HepG2; assay: Antiproliferative activity against human HepG2 cells at 10 uM incubated for 36 hrs by CCK8 assay; format: functional, cell-based
[5] = test system: AGS; assay: Inhibition of cell migration in human AGS cells at 0.2 uM incubated for 48 hrs by wound healing assay relative to control; format: functional
[6] = test system: MCF7; assay: Inhibition of cell migration in human MCF7 cells at 0.1 uM incubated for 48 hrs by wound healing assay relative to control; format: functional; conditions: MCF7, 48 h
[7] = Binding affinity to Tel-26nt G-rich DNA (unknown origin) assessed as change in melting temperature at 2 uM by UV-vis spectrophotometry (reference value: 38.33 +/- 0.07 degreeC)
[8] = Binding affinity to Tel-26nt G-rich DNA (unknown origin) assessed as change in melting temperature at 2 uM by UV-vis spectrophotometry
[9] = test system: MCF7; assay: Inhibition of cell migration in human MCF7 cells at 0.2 uM incubated for 48 hrs by wound healing assay relative to control; format: functional; conditions: MCF7, 48 h
[10] = Selectivity index, ratio of IC50 for human MRC5 cells to IC50 for human AGS cells; format: toxicity; conditions: MRC5 cells versus AGS cells, read-out: Ratio IC50
[11] = test system: A549; assay: Inhibition of cell migration in human A549 cells at 0.2 uM incubated for 48 hrs by wound healing assay relative to control; format: functional; conditions: A549, 48 h
[12] = Selectivity index, ratio of IC50 for human MRC5 cells to IC50 for human A549 cells; format: toxicity; conditions: MRC5 cells versus A549 cells, read-out: Ratio IC50
[13] = biological target: Telomerase reverse transcriptase (Homo sapiens) (UniProt O14746); assay: Inhibition of telomerase activity in human A549 cells at 2 to 8 uM by TRAP assay; format: cell-based
[14] = test system: HepG2; assay: Inhibition of cell migration in human HepG2 cells at 0.4 uM incubated for 48 hrs by wound healing assay relative to control; format: functional; conditions: HepG2, 48 h
[15] = test system: MCF7; assay: Antiproliferative activity against human MCF7 cells incubated for 36 hrs by CCK8 assay; format: functional, cell-based; conditions: MCF7, 36 h
[16] = test system: MRC5; assay: Antiproliferative activity against human MRC5 cells incubated for 36 hrs by CCK8 assay; format: cell-based; conditions: MRC5, 36 h
[17] = Binding affinity to Tel-26nt G-rich DNA (unknown origin) assessed as change in melting temperature at 4 uM by UV-vis spectrophotometry (reference value: 38.33 +/- 0.07 degreeC)
[18] = test system: AGS; assay: Inhibition of cell migration in human AGS cells at 0.4 uM incubated for 48 hrs by wound healing assay relative to control; format: functional
[19] = test system: AGS; assay: Antiproliferative activity against human AGS cells incubated for 36 hrs by CCK8 assay; format: functional, cell-based
[20] = test system: A549; assay: Antiproliferative activity against human A549 cells incubated for 36 hrs by CCK8 assay; format: functional, cell-based; conditions: A549, 36 h
[21] = Binding affinity to Tel-26nt G-rich DNA (unknown origin) assessed as change in melting temperature by UV-vis spectrophotometry
[22] = Binding affinity to Tel-26nt G-rich DNA (unknown origin) incubated for 24 hrs by EMSA
[23] = Binding affinity to Tel-26nt G-rich DNA (unknown origin) assessed as change in melting temperature at 8 uM by UV-vis spectrophotometry (reference value: 38.33 +/- 0.07 degreeC)
[24] = test system: HepG2; assay: Inhibition of cell migration in human HepG2 cells at 0.2 uM incubated for 48 hrs by wound healing assay relative to control; format: functional; conditions: HepG2, 48 h
[25] = Selectivity index, ratio of IC50 for human MRC5 cells to IC50 for human HEPG2 cells
[26] = test system: AGS; assay: Inhibition of cell migration in human AGS cells at 0.1 uM incubated for 48 hrs by wound healing assay relative to control; format: functional
[27] = Binding affinity to Tel-26nt G-rich DNA (unknown origin) at => 3 uM incubated for 24 hrs by EMSA
[28] = test system: HepG2; assay: Inhibition of cell migration in human HepG2 cells at 0.1 uM incubated for 48 hrs by wound healing assay relative to control; format: functional; conditions: HepG2, 48 h
[29] = test system: HepG2; assay: Antiproliferative activity against human HepG2 cells incubated for 36 hrs by CCK8 assay; format: functional, cell-based; conditions: HepG2, 36 h
[30] = test system: A549; assay: Inhibition of cell migration in human A549 cells at 0.1 uM incubated for 48 hrs by wound healing assay relative to control; format: functional; conditions: A549, 48 h
[31] = test system: MCF7; assay: Inhibition of cell migration in human MCF7 cells at 0.4 uM incubated for 48 hrs by wound healing assay relative to control; format: functional; conditions: MCF7, 48 h
[32] = test system: A549; assay: Inhibition of cell migration in human A549 cells at 0.4 uM incubated for 48 hrs by wound healing assay relative to control; format: functional; conditions: A549, 48 h
[33] = Selectivity index, ratio of IC50 for human MRC5 cells to IC50 for human MCF7 cells; format: toxicity; conditions: MRC5 cells versus MCF7 cells, read-out: Ratio IC50
[34] = Binding affinity to Tel-26nt mutated-single-stranded DNA (unknown origin) at 4 to 16 uM measured after each titration for 15 mins during 24 hrs incubation by circular dichroism analysis
[35] = Binding affinity to Tel-26nt G-rich DNA (unknown origin) at 0.25 :1 to 6 : 1 ratio of test compound to DNA measured after each titration for 15 mins during 24 hrs incubation by circular dichroism analysis
[36] = Binding affinity to Tel26nt double stranded DNA (unknown origin) at 4 to 16 uM measured after each titration for 15 mins during 24 hrs incubation by circular dichroism analysis
[37] = Binding affinity to Tel-26nt G-rich DNA (unknown origin) at 4 to 16 uM measured after each titration for 15 mins during 24 hrs incubation by circular dichroism analysis

Sequence of Telomerase reverse transcriptase (Homo sapiens) (O14746 whole entry): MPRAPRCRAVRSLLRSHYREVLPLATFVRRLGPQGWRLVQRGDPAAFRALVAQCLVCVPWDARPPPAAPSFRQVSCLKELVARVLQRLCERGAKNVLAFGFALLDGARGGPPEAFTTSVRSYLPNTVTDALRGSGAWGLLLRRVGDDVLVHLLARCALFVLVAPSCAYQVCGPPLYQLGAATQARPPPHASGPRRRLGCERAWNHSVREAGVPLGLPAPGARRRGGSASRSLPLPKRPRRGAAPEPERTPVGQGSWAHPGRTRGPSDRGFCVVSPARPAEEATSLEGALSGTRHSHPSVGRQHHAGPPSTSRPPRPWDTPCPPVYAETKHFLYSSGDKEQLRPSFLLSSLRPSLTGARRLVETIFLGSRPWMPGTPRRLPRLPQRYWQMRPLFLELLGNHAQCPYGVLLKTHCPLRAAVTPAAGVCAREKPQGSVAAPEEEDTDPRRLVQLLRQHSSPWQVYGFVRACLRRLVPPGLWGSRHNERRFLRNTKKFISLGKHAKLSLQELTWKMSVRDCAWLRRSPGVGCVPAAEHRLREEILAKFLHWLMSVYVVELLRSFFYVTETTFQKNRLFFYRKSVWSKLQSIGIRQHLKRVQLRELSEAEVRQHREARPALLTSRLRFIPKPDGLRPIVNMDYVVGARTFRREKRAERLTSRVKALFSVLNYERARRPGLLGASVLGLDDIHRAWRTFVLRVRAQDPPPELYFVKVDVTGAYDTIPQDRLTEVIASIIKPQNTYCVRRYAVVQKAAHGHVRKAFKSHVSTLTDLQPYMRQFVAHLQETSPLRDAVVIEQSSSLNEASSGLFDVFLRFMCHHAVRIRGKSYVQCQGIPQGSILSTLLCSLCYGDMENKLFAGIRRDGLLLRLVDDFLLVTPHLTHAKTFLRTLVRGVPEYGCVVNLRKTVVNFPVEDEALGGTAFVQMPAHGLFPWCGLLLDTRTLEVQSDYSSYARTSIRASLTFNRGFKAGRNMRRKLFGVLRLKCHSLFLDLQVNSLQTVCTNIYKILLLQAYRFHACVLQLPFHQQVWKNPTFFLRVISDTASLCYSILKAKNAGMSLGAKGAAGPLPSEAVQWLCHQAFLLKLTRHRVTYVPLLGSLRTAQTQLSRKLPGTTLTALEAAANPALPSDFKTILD

Cc1ccc(-c2nn(-c3ccc([N+](=O)[O-])cc3[N+](=O)[O-])cc2C=C2c3cccnc3-c3ncccc32)cc1
growth inhibition (GI) [1]: Active
growth inhibition (GI) [2]: Active
growth inhibition (GI) [3]: Active
growth inhibition (GI) [4]: Active

Cc1ccc(-c2n[nH]cc2C=C2c3cccnc3-c3ncccc32)cc1
growth inhibition (GI) [1]: Active
growth inhibition (GI) [2]: Active
growth inhibition (GI) [3]: Active
growth inhibition (GI) [4]: Active

Cc1ccc(-c2nnc(CN3C(=O)C(=C4c5cccnc5-c5ncccc54)SC3=S)o2)cc1
growth inhibition (GI) [1]: Active
growth inhibition (GI) [2]: Active
growth inhibition (GI) [3]: Active
growth inhibition (GI) [4]: Active

CN(C)CCCn1cc(C=C2c3cccnc3-c3ncccc32)c(-c2ccc(Cl)cc2)n1
inhibition at 0.2 µM [5]: 56%
inhibition at 0.1 µM [6]: 17.9%
Tm [7]: 45.6 °C
growth inhibition (GI) [1]: Active
ΔTm [8]: 4.82 °C
inhibition at 0.2 µM [9]: 41.2%
selectivity ratio [10]: 1.78
inhibition at 0.2 µM [11]: 54.5%
growth inhibition (GI) [2]: Active
selectivity ratio [12]: 2.36
inhibition [13]: Active
inhibition at 0.4 µM [14]: 62.3%
IC50 [15]: 11.8 µM
IC50 [16]: 9.81 µM
growth inhibition (GI) [3]: Active
Tm [17]: 45.7 °C
inhibition at 0.4 µM [18]: 80%
IC50 [19]: 5.52 µM
IC50 [20]: 4.15 µM
deltaTm [21]: Dose-dependent effect
Activity [22]: Dose-dependent effect
Tm [23]: 43.4 °C
growth inhibition (GI) [4]: Active
inhibition at 0.2 µM [24]: 43.2%
Ratio IC50 [25]: 1.52
inhibition at 0.1 µM [26]: 37.5%
Activity [27]: Active
inhibition at 0.1 µM [28]: 19.4%
IC50 [29]: 6.43 µM
inhibition at 0.1 µM [30]: 21.2%
inhibition at 0.4 µM [31]: 54.8%
inhibition at 0.4 µM [32]: 78%
selectivity ratio [33]: 0.83

Fc1ccc(-c2nn(Cc3ccccc3)cc2C=C2c3cccnc3-c3ncccc32)cc1
growth inhibition (GI) [1]: Active
growth inhibition (GI) [2]: Active
growth inhibition (GI) [3]: Active
growth inhibition (GI) [4]: Active

O=[N+]([O-])c1ccc(-n2cc(C=C3c4cccnc4-c4ncccc43)c(-c3ccc(Br)cc3)n2)c([N+](=O)[O-])c1
growth inhibition (GI) [1]: Active
growth inhibition (GI) [2]: Active
growth inhibition (GI) [3]: Active
growth inhibition (GI) [4]: Active

Cc1ccc(-c2nn(Cc3ccccc3)cc2C=C2c3cccnc3-c3ncccc32)cc1
growth inhibition (GI) [1]: Active
growth inhibition (GI) [2]: Active
growth inhibition (GI) [3]: Active
growth inhibition (GI) [4]: Active

O=[N+]([O-])c1ccc(-n2cc(C=C3c4cccnc4-c4ncccc43)c(-c3ccc(F)cc3)n2)c([N+](=O)[O-])c1
growth inhibition (GI) [1]: Active
growth inhibition (GI) [2]: Active
growth inhibition (GI) [3]: Active
growth inhibition (GI) [4]: Active

O=C1C(=C2c3cccnc3-c3ncccc32)SC(=S)N1Cc1nnc(-c2ccc(Br)cc2)o1
Tm [7]: 43.1 °C
growth inhibition (GI) [1]: Active
Activity [34]: inactive
growth inhibition (GI) [2]: Active
growth inhibition (GI) [3]: Active
Tm [17]: 56.1 °C
deltaTm [21]: Dose-dependent effect
Activity [22]: Dose-dependent effect
Tm [23]: 47 °C
Activity [35]: Active
growth inhibition (GI) [4]: Active
Activity [36]: inactive
Activity [27]: inactive
Activity [37]: Active

Brc1ccc(-c2nn(Cc3ccccc3)cc2C=C2c3cccnc3-c3ncccc32)cc1
growth inhibition (GI) [1]: Active
growth inhibition (GI) [2]: Active
growth inhibition (GI) [3]: Active
growth inhibition (GI) [4]: Active

Fc1ccc(-c2n[nH]cc2C=C2c3cccnc3-c3ncccc32)cc1
growth inhibition (GI) [1]: Active
growth inhibition (GI) [2]: Active
growth inhibition (GI) [3]: Active
growth inhibition (GI) [4]: Active

O=[N+]([O-])c1ccc(-n2cc(C=C3c4cccnc4-c4ncccc43)c(-c3ccc(Cl)cc3)n2)c([N+](=O)[O-])c1
growth inhibition (GI) [1]: Active
growth inhibition (GI) [2]: Active
growth inhibition (GI) [3]: Active
growth inhibition (GI) [4]: Active

Clc1ccc(-c2n[nH]cc2C=C2c3cccnc3-c3ncccc32)cc1
growth inhibition (GI) [1]: Active
growth inhibition (GI) [2]: Active
growth inhibition (GI) [3]: Active
growth inhibition (GI) [4]: Active

Clc1ccc(-c2nn(Cc3ccccc3)cc2C=C2c3cccnc3-c3ncccc32)cc1
growth inhibition (GI) [1]: Active
growth inhibition (GI) [2]: Active
growth inhibition (GI) [3]: Active
growth inhibition (GI) [4]: Active

CN(C)CCCn1cc(C=C2c3cccnc3-c3ncccc32)c(-c2ccc(F)cc2)n1
inhibition at 0.2 µM [5]: 67.8%
inhibition at 0.1 µM [6]: 24.9%
Tm [7]: 44 °C
growth inhibition (GI) [1]: Active
inhibition at 0.2 µM [9]: 45.7%
selectivity ratio [10]: 2.02
inhibition at 0.2 µM [11]: 47.9%
growth inhibition (GI) [2]: Active
selectivity ratio [12]: 1.72
inhibition [13]: Active
inhibition at 0.4 µM [14]: 69.9%
IC50 [15]: 6.7 µM
IC50 [16]: 5.93 µM
growth inhibition (GI) [3]: Active
Tm [17]: 44 °C
inhibition at 0.4 µM [18]: 81.6%
IC50 [19]: 2.93 µM
IC50 [20]: 3.44 µM
deltaTm [21]: Dose-dependent effect
Activity [22]: Dose-dependent effect
Tm [23]: 62.7 °C
growth inhibition (GI) [4]: Active
inhibition at 0.2 µM [24]: 53.7%
Ratio IC50 [25]: 1.79
inhibition at 0.1 µM [26]: 44.5%
Activity [27]: Active
inhibition at 0.1 µM [28]: 22.4%
IC50 [29]: 3.32 µM
inhibition at 0.1 µM [30]: 18.3%
inhibition at 0.4 µM [31]: 63.9%
inhibition at 0.4 µM [32]: 74.5%
selectivity ratio [33]: 0.88

O=C1C(=C2c3cccnc3-c3ncccc32)SC(=S)N1Cc1nnc(-c2ccc(Cl)cc2)o1
growth inhibition (GI) [1]: Active
growth inhibition (GI) [2]: Active
growth inhibition (GI) [3]: Active
growth inhibition (GI) [4]: Active

O=C(O)CN1C(=O)C(=C2c3cccnc3-c3ncccc32)SC1=S
growth inhibition (GI) [1]: Active
growth inhibition (GI) [2]: Active
growth inhibition (GI) [3]: Active
growth inhibition (GI) [4]: Active

Brc1ccc(-c2n[nH]cc2C=C2c3cccnc3-c3ncccc32)cc1
growth inhibition (GI) [1]: Active
growth inhibition (GI) [2]: Active
growth inhibition (GI) [3]: Active
growth inhibition (GI) [4]: Active
